Test results published in patent US20210379068A1, “METHODS AND MATERIALS FOR TREATING NEUROPSYCHIATRIC DISORDERS” (Mayo Foundation for Medical Education and Research, priority 2018, published 2021).
“Also recorded” adds a separate entry of the source.

What was measured:
Assay type in all cases: in vivo, mouse
HFD-fed INK-ATTAC mice [1] = assay: Open field test, chow/HFD INK-ATTAC mice treated with AP20187
Procedure: (§1) INK-ATTAC mice were injected intraperitoneally (i.p.) with AP20187 (10 mg/kg) or vehicle for 3 days every 2 weeks for a total of 8-10 weeks.
Locomotor activity and anxiety-like behavior of mice were assessed in sound-insulated, rectangular activity chambers (Med Associates Inc., St Albans, Vt., USA: W×L×D=27 cm×27 cm×20 cm with continually running fans, infrared lasers, and sensors). Beam breaks were assessed in 2-minute bins over 30 minutes, converted automatically to current mouse location and distance travelled (cm), and recorded on a computer with Med-PC software Version 4.0. Before the test, mice were acclimatized to the room for 1-1.5 hours before being introduced into the chambers. Mice were habituated for 5 minutes in the Open Field chamber (without recording) then placed for another 5 minutes in the home cage. Afterwards, mice were introduced back to the chambers and all mouse movements were recorded for 30 minutes. Anxiety was quantified by the distance mice travelled in the central 25% of the chamber (zone 1) as a function of the total distance mice travelled and by frequencies of entries into zone 1.

HFD-fed INK-ATTAC mice [2] = assay: Elevated plus maze, chow/HFD INK-ATTAC mice treated with AP20187; conditions: INK-ATTAC mice on HFD; AP20187 10 mg/kg i.p. vs vehicle
Procedure: as §1
A grey colored elevated plus maze apparatus was used. Two open arms (25×5 cm) and two closed arms (25×5 cm) were attached at right angles to a central platform (5×5 cm). The apparatus was set 40 cm above the floor. Mice were first acclimatized to the room for 1-1.5 hours. Mice were then placed individually on the central platform with their back to one of the open arms. Before the test, mice were habituated for 1 minute to the maze, then placed back in the home cage for 5 minutes. Mice were tested for 5 minutes during which they could freely explore the apparatus. Tracking software (Ethovision) recognizes mouse head, central body point, and the base of the tail. Anxiety was quantified by frequency of and time spent during head pokes/dips toward open arms. Higher anxiety is indicated by a lower frequency of movement into open arms and less time spent there.

[3] = test system: Plin2+ periventricular glia; assay: Periventricular Plin2+ and TAF-positive cells (lateral ventricle), HFD INK-ATTAC mice; conditions: AP20187 vs vehicle
Procedure: as §1
Paraffin sections were deparaffinized with Histoclear and hydrated in an ethanol gradient followed by water and PBS. Antigen was retrieved by incubation in 0.01M citrate buffer (pH 6.0) at 95° C. for 10 minutes. Slides were placed in blocking buffer (1:60 normal goat serum [S-1000, Vector Laboratories] in 0.1% BSA/PBS) for 60 minutes at room temperature. […] Primary antibodies used (Table 2) were diluted in blocking buffer and applied overnight at 4° C. The next day, slides were washed 3 times with PBS and incubated for 30 minutes with secondary goat, anti-rabbit antibody (1:200; Vector Laboratories #BA-1000) for TAF staining or for 60 minutes with secondary Alexa antibody (Table 1). For TAF staining, Fluorescein-Avidin in PBS (1:500; #A-2011, Vector Lab) was applied to each sample for 20 minutes. Slides were washed 3 times in PBS, which was followed by FISH for TAF detection. […]
A single, 3 μm-thick section per mouse was used for TAF staining, while for Dcx and Plin2 staining was performed on three 10 μm-thick sections 80 μm-apart. To quantify periventricular lipid accumulation 10-30 images in the periventricular region were taken using the DM5500 widefield fluorescence microscope from Leica with a 10× (for frequency of periventricular glia) or ×40 (for ALISE phenotype of ependymal cells) objective lens. Number of Plin2-positive cells (for frequency of ALISE-positive periventricular glia) or area of Plin2-positive vesicles (for ALISE phenotype of ependymal cells) was assessed using ImageJ software. For identity assessment of Plin2+ cells, 10 μm-thick sections were stained with combination of antibodies for Iba1 (secondary antibody conjugated with Alexa Fluor 488), Plin2 (secondary antibody conjugated with Alexa Fluor 594), and Vimentin (secondary antibody conjugated with Alexa Fluor 647) and quantified for frequency of Plin2+ astrocytes (Iba1−, Vim+) and microglia (Iba1+) in the periventricular region. […]

brain cell populations = assay: CyTOF of brain cell populations, INK-ATTAC mice; conditions: AP vs vehicle
Procedure: as §1
This technique uniquely combines time-of-flight mass spectrometry with metal-labelling technology to enable detection of up to 40 protein targets per cell. A panel of antibodies based on surface markers, transcription factors, and cytokines (see Table 1) was designed for brain mass cytometry/cytometry by time of flight (CyTOF). Each antibody was tagged with a rare metal isotope and its function verified by mass cytometry according to the factory manual (Multi Metal labelling Kits, Fluidigm, CA). A CyTOF-2 mass cytometer (Fluidigm, South San Francisco, Calif.) was used for data acquisition. Acquired data were normalized based on normalization beads (Ce140, Eu151, Eu153, Ho165, and Lu175). A single brain hemisphere was dissociated into a single-cell suspension using brain tissue dissociation kits (Adult Brain Dissociation Kit, Miltenyi Biotec Inc., CA). Collected cells were incubated with metal-conjugated antibodies and, for testing intracellular proteins, including transcription factors and cytokines, fixation and permeabilization was conducted according to the manufacturer's instructions (Transcription Factor Staining Buffer Set, eBioscience, San Diego, Calif.). CyTOF data were analyzed by Cytobank (Santa Clara, Calif.).

[4] = INK-ATTAC mice on HFD, AP20187 10 mg/kg i.p. 3 days every 2 weeks, 8-10 weeks, vs vehicle

Structure (SMILES): CC[C@H](C(=O)N1CCCC[C@H]1C(=O)O[C@H](CCc1ccc(OC)c(OC)c1)c1cccc(OCC(=O)NCC(CNC(=O)COc2cccc([C@@H](CCc3ccc(OC)c(OC)c3)OC(=O)[C@@H]3CCCCN3C(=O)[C@@H](CC)c3cc(OC)c(OC)c(OC)c3)c2)CN(C)C)c1)c1cc(OC)c(OC)c(OC)c1 [AP]
- anxiety-like behavior: distance travelled in the central zone (as function of total distance), open field (HFD-fed INK-ATTAC mice [1]; [4]): alleviated; also recorded: reduced HFD-induced anxiety-like behavior
- anxiety-like behavior: entries into the central zone, open field (HFD-fed INK-ATTAC mice [1]; [4]): alleviated; also recorded: reduced HFD-induced anxiety-like behavior
- total distance travelled, open field (HFD-fed INK-ATTAC mice [1]; INK-ATTAC mice, AP20187 10 mg/kg i.p. vs vehicle): did not affect
- open field parameters (central distance, entries) in chow-fed mice (HFD-fed INK-ATTAC mice [1]; chow-fed INK-ATTAC mice, AP20187 10 mg/kg i.p. vs vehicle): did not affect
- anxiety-like phenotype: frequency of head entries/pokes into the open arms, EPM (HFD-fed INK-ATTAC mice [2]): increased; also recorded: significantly decreased the anxiety-like phenotype
- time mice spent with their heads in open area, EPM (HFD-fed INK-ATTAC mice [2]): increased
- Plin2+ cells (cells containing lipid droplets) in the periventricular area [3]: significant reduction
- cells bearing senescent markers (NeuN negative, TAF-positive cells) in the periventricular region [3]: significant reduction
- Plin2+ cells (cells containing lipid droplets) in the periventricular area ([3]; listed as AP20187): reduced lipid droplets
- ependymal cells (CD133+), CyTOF (brain cell populations; HFD INK-ATTAC mice): significantly increased; also recorded: replenish
- immature neurons (Dcx+), CyTOF (brain cell populations; HFD INK-ATTAC mice): significantly increased; also recorded: partial recovery
- neuronal precursor cells (Nestin+), CyTOF (brain cell populations; HFD INK-ATTAC mice): replenish; also recorded: significantly increased
- frequency of endothelial cells (CD146+), CyTOF (brain cell populations; INK-ATTAC mice): did not alter
- frequency of mature neurons (NeuN+), CyTOF (brain cell populations; INK-ATTAC mice): did not alter
- frequency of microglia (CD11b+, CD45-), CyTOF (brain cell populations; INK-ATTAC mice): did not alter
- frequency of oligodendrocytes (CNPase+ or OSP+), CyTOF (brain cell populations; INK-ATTAC mice): did not alter
